Measurements: ChEMBL document CHEMBL1201862, “PubChem BioAssay data set” (2004)
The source made the active and inactive calls.

Columns and labels:
CHO-K1 = experiment: (§1) Counterscreen for antagonists of the orexin 1 receptor (OX1R; HCRTR1): Homogeneous time resolved fluorescence (HTRF)-based cell-based dose response assay to identify antagonists of the parental CHO-K1 cell line. [Related pubchem assays (depositor defined):AID434989, AID435008, AID463079, AID485270, AID492963, AID492964, AID492965, AID493232, AID504699, AID504701]; assay type: functional; conditions: Cricetulus griseus
[1] = as §1, with “Fluorescence-based” for “Homogeneous time resolved fluorescence (HTRF)-based”, “cell-based high throughput” for “cell-based”, “CHO” for “CHO-K1”; assay type: functional
[2] = biological target: T1, Orexin/Hypocretin receptor type 1 (Homo sapiens, UniProt O43613); experiment: Homogeneous Time Resolved Fluorescence (HTRF)-based cell-based high throughput dose response assay for antagonists of the orexin 1 receptor (OX1R; HCRTR1). [Related pubchem assays (depositor defined):AID434989, AID435008, AID463079, AID485270, AID492963, AID492964, AID492965, AID493232, AID504717, AID504718]; assay type: functional
T1 sequence (O43613 whole entry): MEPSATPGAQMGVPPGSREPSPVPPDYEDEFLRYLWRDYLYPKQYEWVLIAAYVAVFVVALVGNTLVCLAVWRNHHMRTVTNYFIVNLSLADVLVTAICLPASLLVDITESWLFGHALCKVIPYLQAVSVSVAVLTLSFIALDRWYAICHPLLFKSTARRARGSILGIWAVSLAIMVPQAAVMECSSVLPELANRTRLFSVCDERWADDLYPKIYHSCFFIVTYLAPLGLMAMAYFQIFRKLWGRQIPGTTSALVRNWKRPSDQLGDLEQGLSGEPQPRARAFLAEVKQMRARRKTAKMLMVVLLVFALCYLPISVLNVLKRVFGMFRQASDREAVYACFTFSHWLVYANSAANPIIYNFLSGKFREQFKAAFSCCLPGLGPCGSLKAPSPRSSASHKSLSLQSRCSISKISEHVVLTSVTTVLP

[3] = biological target: T1, Orexin/Hypocretin receptor type 1; experiment: Fluorescence-based cell-based high throughput dose response assay for antagonists of the orexin 1 receptor (OX1R; HCRTR1). [Related pubchem assays (depositor defined):AID434989, AID435008, AID463079, AID485270, AID492963, AID492964, AID492965, AID493232, AID504717, AID504718]; assay type: functional
Orexin receptor type 2 [4] = biological target: T2, Orexin receptor type 2 (Homo sapiens, UniProt O43614); experiment: Counterscreen assay for antagonists of the orexin 1 receptor (OX1R; HCRTR1): Fluorescence-based cell-based dose response assay for antagonists of the orexin 2 receptor (OX2R; HCRTR2), run by assay provider.; assay type: functional
T2 sequence (O43614 whole entry): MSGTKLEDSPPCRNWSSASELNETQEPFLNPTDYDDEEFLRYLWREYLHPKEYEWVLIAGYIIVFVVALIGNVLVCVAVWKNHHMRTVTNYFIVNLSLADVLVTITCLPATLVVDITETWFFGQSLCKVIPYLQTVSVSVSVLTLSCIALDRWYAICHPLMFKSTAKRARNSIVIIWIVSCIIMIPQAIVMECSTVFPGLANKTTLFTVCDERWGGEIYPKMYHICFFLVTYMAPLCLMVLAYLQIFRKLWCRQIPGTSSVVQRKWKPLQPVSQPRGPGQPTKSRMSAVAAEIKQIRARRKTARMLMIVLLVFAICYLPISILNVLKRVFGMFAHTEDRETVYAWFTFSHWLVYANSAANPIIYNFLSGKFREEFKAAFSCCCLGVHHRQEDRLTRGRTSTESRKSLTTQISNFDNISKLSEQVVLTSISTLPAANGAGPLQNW

Orexin receptor type 2 [5] = biological target: T2, Orexin receptor type 2; experiment: Counterscreen assay for antagonists of the orexin 1 receptor (OX1R; HCRTR1): Homogeneous Time Resolved Fluorescence (HTRF)-based cell-based dose response assay for antagonists of the orexin 2 receptor (OX2R; HCRTR2), run by assay provider.; assay type: functional
[6] = biological target: T3, Corticotropin-releasing factor receptor 2/Corticotropin-releasing factor-binding protein (Homo sapiens, UniProt P24387+Q13324); experiment: Dose Response confirmation of uHTS hits for small molecule antagonists of the CRF-binding protein and CRF-R2 receptor complex.; assay type: functional; conditions: read-out: IC50_Mean
T3 sequence (Q13324 whole entry): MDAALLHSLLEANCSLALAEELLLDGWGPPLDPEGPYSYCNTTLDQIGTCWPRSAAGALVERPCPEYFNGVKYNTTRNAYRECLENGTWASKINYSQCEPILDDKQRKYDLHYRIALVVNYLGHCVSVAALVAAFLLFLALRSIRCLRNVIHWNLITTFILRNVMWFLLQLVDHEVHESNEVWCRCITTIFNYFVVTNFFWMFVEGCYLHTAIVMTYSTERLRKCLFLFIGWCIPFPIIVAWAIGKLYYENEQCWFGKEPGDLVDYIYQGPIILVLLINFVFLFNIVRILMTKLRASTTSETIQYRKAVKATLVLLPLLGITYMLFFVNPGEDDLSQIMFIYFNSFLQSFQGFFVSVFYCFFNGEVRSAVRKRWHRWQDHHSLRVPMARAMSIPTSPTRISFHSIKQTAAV
T3 sequence (P24387 whole entry): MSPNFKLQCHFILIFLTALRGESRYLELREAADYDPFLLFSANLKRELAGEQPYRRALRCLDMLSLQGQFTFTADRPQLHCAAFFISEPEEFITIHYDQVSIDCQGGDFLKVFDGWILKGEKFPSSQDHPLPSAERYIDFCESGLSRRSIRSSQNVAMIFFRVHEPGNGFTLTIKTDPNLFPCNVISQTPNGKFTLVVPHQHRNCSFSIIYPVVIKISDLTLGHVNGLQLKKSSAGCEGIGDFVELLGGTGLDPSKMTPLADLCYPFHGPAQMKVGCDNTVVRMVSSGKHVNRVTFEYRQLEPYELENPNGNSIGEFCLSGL

[7] = biological target: T3, Corticotropin-releasing factor receptor 2/Corticotropin-releasing factor-binding protein; experiment: activators of CRF receptor 2 with binding protein – uHTS hits, confirmation (AID 602473); assay type: functional; conditions: read-out: EC50_Mean
[8] = CRF-BP/CRF-R2 complex antagonists, dose response, cell-based, uHTS hits, 384-well (AID 651639); assay type: functional, Homo sapiens; conditions: read-out: IC50_Mean
[9] = biological target: T4, Polyadenylate-binding protein 1 (Homo sapiens, UniProt P11940); experiment: PABP1 MLLE–PAM2 interaction inhibitors, dose response, miRNA deadenylation inhibitor project, biochemical, fluorescence polarization, Cy5-PAM2 peptide, secondary (AID 602260); assay type: functional; conditions: read-out: IC50_Mean
T4 sequence (P11940 whole entry): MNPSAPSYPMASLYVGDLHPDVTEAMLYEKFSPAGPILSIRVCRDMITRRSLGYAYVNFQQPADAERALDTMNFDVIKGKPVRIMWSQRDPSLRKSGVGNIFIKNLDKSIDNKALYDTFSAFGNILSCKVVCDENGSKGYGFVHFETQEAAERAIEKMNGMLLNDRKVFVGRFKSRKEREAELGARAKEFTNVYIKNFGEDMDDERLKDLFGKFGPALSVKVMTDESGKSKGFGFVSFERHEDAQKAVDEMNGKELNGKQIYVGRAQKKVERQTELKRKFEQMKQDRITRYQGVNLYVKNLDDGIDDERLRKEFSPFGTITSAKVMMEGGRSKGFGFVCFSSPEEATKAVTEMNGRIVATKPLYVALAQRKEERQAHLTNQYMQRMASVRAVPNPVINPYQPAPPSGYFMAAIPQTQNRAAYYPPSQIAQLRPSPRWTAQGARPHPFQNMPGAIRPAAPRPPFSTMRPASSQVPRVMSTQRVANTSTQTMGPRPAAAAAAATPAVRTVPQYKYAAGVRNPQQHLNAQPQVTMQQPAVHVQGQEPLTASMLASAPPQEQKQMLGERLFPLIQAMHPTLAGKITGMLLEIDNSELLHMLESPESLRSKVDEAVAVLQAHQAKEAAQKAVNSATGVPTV

[10] = biological target: T4, Polyadenylate-binding protein 1; experiment: PABP1 MLLE–PAM2 binding inhibitor potency, dose response, biochemical, fluorescence polarization, FITC-PAM2 peptide (AID 602259); assay type: functional; conditions: read-out: IC50_Mean
[11] = biological target: ALK tyrosine kinase receptor (Homo sapiens, UniProt Q9UM73); assay type: functional;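 further: ALK tested as one member of a kinase panel screen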
LIM domain kinase 1 = LIM domain kinase 1 (Homo sapiens, UniProt P53667); experiment: Navigating the Kinome. Panel member name: LIMK1; assay type: functional
[12] = biological target: Dual specificity tyrosine-phosphorylation-regulated kinase 1B (Homo sapiens, UniProt Q9Y463); experiment: Navigating the Kinome. Panel member name: DYRK1B; assay type: functional
[13] = biological target: Macrophage-stimulating protein receptor (Homo sapiens, UniProt Q04912); experiment: Navigating the Kinome. Panel member name: MST1R; assay type: functional
Melanocortin receptor 4 = Melanocortin receptor 4 (Homo sapiens, UniProt P32245); assay type: functional, cell-based;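 further: Cell-based assay with luminescence read-out, confirmatory dose-response testing for agonist activity of biased ligands at MC4R; human U2OS cells with tagged receptor and beta-arrestin; potency of agonists that increase receptor coupling to beta-arrestin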
[14] = biological target: T5, ATP-dependent translocase ABCB1 (Homo sapiens, UniProt P08183); experiment: ABCG2 efflux pump inhibitor potency, dose response, Ig-MXP3 cells, JC-1, flow cytometry, set 2 (AID 504566); assay type: functional; conditions: read-out: EC50_MICROM_;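 further: flow cytometry median green fluorescence of retained JC-1 dye; potency of efflux pump inhibition measured as rising substrate retention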
T5 sequence (P08183 whole entry): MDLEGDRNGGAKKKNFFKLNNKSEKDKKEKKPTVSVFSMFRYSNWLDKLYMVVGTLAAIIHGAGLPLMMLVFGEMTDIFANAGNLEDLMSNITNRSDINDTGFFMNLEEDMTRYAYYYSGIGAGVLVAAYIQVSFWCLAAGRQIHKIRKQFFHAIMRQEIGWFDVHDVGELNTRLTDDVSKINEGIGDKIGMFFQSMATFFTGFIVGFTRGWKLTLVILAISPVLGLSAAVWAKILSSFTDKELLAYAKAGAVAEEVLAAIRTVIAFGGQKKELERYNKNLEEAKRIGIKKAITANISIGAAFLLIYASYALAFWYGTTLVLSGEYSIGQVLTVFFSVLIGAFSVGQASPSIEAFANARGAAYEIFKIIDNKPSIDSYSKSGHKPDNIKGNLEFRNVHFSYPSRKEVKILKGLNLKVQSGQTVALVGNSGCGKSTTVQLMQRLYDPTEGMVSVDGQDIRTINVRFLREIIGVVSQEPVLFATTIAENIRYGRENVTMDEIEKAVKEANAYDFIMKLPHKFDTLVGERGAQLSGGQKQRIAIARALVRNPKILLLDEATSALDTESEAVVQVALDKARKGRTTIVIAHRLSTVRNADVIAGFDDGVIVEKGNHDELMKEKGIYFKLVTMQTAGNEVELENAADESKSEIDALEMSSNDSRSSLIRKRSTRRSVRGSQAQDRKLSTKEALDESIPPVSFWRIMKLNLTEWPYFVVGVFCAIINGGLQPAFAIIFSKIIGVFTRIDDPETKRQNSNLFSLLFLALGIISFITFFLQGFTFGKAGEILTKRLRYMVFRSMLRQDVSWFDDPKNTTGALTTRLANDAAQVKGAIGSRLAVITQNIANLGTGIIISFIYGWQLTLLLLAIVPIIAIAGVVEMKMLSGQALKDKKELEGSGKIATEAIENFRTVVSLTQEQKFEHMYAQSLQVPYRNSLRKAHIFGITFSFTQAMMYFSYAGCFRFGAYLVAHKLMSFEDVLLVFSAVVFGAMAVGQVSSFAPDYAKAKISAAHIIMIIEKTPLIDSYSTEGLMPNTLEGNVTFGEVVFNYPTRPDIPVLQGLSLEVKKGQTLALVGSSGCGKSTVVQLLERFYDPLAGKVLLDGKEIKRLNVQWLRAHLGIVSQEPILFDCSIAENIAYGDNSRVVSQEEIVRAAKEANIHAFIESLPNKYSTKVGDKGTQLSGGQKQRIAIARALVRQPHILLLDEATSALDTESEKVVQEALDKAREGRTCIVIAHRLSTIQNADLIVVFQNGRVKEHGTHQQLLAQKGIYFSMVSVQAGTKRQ

[15] = biological target: T5, ATP-dependent translocase ABCB1; experiment: ABCB1 efflux inhibitor potency, dose response, Jurkat-DNR cells, JC-1, flow cytometry, set 2 (AID 504569); assay type: functional; conditions: read-out: EC50_MICROM_;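 further: potency of pump inhibitors that raise cellular JC-1 green fluorescence up to the nicardipine level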
[16] = biological target: T6, Voltage-gated N-type calcium channel alpha-1B subunit/Amyloid beta A4 precursor protein-binding family A member 1 (Homo sapiens, UniProt Q00975+Q02410); assay type: protein assay
T6 sequence (Q00975 whole entry): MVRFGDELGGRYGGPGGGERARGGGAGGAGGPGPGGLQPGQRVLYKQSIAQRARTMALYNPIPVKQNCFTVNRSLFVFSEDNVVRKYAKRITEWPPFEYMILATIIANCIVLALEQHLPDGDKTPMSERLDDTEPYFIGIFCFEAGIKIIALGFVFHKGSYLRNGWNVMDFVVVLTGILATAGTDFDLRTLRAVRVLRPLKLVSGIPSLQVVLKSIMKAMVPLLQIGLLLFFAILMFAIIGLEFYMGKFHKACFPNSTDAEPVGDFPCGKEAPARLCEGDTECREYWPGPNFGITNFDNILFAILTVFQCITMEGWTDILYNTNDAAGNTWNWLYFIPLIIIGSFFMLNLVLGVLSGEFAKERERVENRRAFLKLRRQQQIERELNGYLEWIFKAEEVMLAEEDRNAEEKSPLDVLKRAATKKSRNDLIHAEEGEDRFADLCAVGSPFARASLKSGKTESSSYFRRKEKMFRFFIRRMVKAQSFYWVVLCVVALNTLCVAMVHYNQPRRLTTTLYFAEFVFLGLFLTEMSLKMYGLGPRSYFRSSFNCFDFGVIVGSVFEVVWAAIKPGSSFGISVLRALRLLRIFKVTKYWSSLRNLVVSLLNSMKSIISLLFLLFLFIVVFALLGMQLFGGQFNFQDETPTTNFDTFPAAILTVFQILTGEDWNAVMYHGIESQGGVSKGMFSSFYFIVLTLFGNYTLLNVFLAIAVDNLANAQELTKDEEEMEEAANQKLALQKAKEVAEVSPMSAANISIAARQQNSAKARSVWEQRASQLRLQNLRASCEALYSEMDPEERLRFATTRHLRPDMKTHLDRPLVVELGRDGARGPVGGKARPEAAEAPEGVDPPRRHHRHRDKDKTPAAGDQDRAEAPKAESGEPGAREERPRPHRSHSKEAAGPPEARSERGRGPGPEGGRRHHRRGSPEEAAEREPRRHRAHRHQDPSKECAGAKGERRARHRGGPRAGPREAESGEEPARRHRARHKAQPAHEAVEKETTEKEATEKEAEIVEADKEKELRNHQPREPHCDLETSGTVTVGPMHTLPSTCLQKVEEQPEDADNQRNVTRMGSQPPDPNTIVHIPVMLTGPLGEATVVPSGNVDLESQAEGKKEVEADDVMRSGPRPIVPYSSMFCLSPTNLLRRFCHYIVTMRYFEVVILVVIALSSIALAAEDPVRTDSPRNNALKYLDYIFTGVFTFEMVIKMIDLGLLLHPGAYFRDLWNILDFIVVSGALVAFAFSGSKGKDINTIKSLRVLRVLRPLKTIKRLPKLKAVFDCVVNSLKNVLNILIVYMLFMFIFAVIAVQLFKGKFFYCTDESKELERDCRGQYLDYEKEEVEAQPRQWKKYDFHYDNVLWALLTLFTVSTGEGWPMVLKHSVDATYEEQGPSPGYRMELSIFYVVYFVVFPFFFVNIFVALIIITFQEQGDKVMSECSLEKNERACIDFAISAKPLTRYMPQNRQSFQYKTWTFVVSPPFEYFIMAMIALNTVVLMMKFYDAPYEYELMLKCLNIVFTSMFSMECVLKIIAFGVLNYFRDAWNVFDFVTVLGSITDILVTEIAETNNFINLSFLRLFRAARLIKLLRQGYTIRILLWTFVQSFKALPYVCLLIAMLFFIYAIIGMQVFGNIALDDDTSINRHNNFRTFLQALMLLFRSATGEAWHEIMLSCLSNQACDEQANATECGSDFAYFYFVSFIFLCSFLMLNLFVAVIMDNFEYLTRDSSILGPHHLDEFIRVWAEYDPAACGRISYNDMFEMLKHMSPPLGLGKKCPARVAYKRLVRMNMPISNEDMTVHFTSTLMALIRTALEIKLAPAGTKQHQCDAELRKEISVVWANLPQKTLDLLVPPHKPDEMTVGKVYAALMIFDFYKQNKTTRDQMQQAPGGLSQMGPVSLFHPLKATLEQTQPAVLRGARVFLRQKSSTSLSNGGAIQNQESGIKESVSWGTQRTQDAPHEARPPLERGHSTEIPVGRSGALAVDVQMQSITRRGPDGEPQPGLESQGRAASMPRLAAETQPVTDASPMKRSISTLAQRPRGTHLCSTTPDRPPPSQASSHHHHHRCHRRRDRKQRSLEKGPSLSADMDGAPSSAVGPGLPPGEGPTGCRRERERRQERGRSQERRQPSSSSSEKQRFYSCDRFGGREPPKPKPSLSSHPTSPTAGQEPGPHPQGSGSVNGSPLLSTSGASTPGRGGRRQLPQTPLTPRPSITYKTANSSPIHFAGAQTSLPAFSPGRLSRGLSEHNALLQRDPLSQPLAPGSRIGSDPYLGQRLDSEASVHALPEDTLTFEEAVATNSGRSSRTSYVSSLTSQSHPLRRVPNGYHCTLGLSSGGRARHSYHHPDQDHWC
T6 sequence (Q02410 whole entry): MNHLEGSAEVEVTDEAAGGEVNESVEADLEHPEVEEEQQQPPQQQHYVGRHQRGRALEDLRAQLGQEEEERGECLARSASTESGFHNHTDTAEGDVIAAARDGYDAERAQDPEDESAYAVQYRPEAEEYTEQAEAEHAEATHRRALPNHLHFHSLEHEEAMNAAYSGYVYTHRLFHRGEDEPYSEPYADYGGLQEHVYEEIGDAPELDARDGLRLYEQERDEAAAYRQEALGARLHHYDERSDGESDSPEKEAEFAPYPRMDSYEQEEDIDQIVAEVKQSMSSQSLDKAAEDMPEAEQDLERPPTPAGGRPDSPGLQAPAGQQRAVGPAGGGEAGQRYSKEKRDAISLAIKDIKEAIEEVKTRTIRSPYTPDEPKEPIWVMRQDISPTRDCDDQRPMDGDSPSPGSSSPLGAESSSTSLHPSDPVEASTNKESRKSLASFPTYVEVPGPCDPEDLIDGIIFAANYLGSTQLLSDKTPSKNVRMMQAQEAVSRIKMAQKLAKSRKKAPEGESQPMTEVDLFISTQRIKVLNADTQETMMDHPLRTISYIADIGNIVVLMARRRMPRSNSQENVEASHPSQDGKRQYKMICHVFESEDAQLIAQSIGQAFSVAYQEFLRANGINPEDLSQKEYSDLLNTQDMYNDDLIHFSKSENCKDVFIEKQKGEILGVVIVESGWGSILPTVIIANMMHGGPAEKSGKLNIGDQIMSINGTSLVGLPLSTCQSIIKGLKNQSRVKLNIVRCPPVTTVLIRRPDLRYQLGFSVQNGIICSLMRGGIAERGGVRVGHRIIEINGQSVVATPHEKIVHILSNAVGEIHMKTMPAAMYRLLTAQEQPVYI

[17] = biological target: T6, Voltage-gated N-type calcium channel alpha-1B subunit/Amyloid beta A4 precursor protein-binding family A member 1; assay type: protein assay; remark: listed apart in the source
ORF 73 = biological target: T7, ORF 73 (Human herpesvirus 8, UniProt O40947); experiment: inhibitors of C-LANA binding to LBS DNA, dose response, biochemical, fluorescence polarization, cherry-picked samples (AID 504725); design: species or system Human gammaherpesvirus 8;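 further: fluorescence polarization of a labeled DNA duplex reporting LANA DNA binding; potency is for inhibitors that block LANA binding to the DNA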
T7 sequence (O40947 whole entry): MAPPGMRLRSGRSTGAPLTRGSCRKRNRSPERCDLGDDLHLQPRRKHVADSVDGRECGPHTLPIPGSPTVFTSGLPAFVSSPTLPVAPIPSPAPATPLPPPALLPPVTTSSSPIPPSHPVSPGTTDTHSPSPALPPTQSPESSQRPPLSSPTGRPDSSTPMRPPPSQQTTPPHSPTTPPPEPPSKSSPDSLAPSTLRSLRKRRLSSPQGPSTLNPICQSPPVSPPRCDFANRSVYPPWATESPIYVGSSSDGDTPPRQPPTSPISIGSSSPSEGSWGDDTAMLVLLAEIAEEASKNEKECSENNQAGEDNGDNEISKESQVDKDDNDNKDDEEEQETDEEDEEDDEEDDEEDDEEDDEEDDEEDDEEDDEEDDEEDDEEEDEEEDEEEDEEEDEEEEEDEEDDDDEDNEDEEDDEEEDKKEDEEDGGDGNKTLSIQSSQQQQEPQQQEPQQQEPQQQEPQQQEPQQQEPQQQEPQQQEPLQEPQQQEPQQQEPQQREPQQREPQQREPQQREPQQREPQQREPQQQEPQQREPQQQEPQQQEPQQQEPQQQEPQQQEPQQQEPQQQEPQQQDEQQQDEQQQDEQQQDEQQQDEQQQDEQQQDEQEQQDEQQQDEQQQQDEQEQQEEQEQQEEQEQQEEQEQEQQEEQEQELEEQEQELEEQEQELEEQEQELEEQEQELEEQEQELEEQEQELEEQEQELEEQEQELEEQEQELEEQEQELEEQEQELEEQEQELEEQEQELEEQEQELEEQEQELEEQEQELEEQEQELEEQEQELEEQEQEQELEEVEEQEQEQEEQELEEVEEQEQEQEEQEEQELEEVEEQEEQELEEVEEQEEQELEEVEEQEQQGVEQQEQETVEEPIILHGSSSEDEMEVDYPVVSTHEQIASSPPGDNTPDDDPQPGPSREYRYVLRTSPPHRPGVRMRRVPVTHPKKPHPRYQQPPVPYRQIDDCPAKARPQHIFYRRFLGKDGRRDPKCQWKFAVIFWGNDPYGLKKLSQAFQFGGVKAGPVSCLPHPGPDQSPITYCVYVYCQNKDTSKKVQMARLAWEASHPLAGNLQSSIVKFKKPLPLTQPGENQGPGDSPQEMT

[18] = biological target: T8, Carboxy-terminal domain RNA polymerase II polypeptide A small phosphatase 1 (Homo sapiens, UniProt Q9GZU7); experiment: inhibitors of CTDSP1, concentration-response testing, biochemical assay, absorbance-based, actives from ultra-high-throughput screening (AID 540297); assay type: functional
T8 sequence (Q9GZU7 whole entry): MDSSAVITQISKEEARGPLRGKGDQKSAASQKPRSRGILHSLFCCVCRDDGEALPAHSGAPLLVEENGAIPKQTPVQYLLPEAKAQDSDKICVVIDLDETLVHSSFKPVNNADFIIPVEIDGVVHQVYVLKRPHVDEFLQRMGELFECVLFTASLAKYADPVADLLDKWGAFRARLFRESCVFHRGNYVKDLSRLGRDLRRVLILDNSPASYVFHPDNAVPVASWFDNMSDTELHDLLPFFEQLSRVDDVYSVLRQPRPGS

[19] = biological target: DNA (cytosine-5)-methyltransferase 1 (Homo sapiens, UniProt P26358); experiment: DNMT1 methyltransferase inhibitors, confirmation, biochemical, fluorescent molecular beacon (AID 602386); assay type: functional

With Cc1ccc(N(C)S(=O)(=O)c2cccc(C(=O)NCC(c3cccs3)N3CCOCC3)c2)cc1 (centres undefined) the IC50 (CHO-K1) was > 66.2 µM (inactive), the IC50 [1] was > 49.8 µM (inactive) and the IC50 [2] was 0.715 µM (active). For the same compound, the IC50 [3] was 12 µM (inactive), the IC50 (Orexin receptor type 2 [4]) was > 88.8 µM (inactive) and the IC50 (Orexin receptor type 2 [5]) was 3.35 µM (active).
For CCCCNC(=O)CCn1c(=O)c2ccccc2n(Cc2ccccc2C)c1=O, the IC50 [6] was 2.98 µM (active), the EC50 [7] was > 53 µM (inactive) and the IC50 [8] was 19.8 µM (active).
With O=C(NC(=S)Nc1cccc2cccnc12)c1cccs1 the IC50 (CHO-K1) was > 66.2 µM (inactive), the IC50 [1] was > 49.7 µM (inactive) and the IC50 [2] was > 0.00331 µM (active). The IC50 [3] was > 5.52 µM (active), the IC50 [9] was > 66 µM (inactive) and the IC50 [10] was > 66 µM (inactive). The IC50 (Orexin receptor type 2 [4]) was > 88.8 µM (inactive) and the IC50 (Orexin receptor type 2 [5]) was > 50 µM (inactive).
With Nc1ccc2cc(NCCc3ccccc3)cc(Nc3ncccn3)c2n1 the Ki [11] was 1.58 µM (active), the Ki (LIM domain kinase 1) was 0.631 µM (active) and the Ki [12] was 2 µM (active). The Ki [13] was 3.16 µM (active).
With O=C(NC(c1ccccc1)c1ccsc1)C1CCN(CCOc2ccc(Cl)cc2Cl)CC1 (centres undefined) the EC50 (Melanocortin receptor 4) was > 89.2 µM (inactive).
For O=C(c1ccoc1)N1CCCN(c2cc(-c3ccccc3)nc3cc(-c4cccc(Cl)c4)nn23)CC1, the EC50 [14] was 1.98 µM (active) and the EC50 [15] was 6 µM (active).
In the case of C=C(C)C(=O)Nc1cccc(C2=NOC3(C2)C[C@@H](C(N)=O)N(C(=O)C2(C)CC2)C3)c1 (some centres undefined), the IC50 [16] is reported as 1.84 µM (active), the IC50 [17] is reported as > 50 µM (inactive) and the AC50 (ORF 73) is reported as 17.9 µM (active). For the same compound, the IC50 [18] was 0.408 µM (active) and the IC50 [19] was 1.45 µM (active).
